Test results published in patent US6664267B1, “Crystalline fluoroquinolone arginine salt form” (Wockhardt Limited, priority 2002, dated 2003).
Values joined by “and” are separate entries in the source; they are usually repeats but may differ in a detail not shown here. Identical values can stand only once. Counter-ions that a name gives are not always drawn. Like-named read-outs stand apart in the source and are kept apart here.

Legend:
[1] = antimicrobial activity
[2] = hygroscopicity / moisture uptake on exposure to humidity, determined gravimetrically; format: physicochemical
[3] = bulk density determination; format: physicochemical
From the text: Untapped density=25 g/untapped volume.
Tapped density=25 g/Tapped volume.

[4] = system: resistant Staphylococcus aureus
[5] = system: rats; settings: rat, in vivo, iv
[6] = system: respiratory pathogens; test: treating respiratory pathogens
[7] = system: rodents; settings: in vivo
[8] = antibacterial minimum inhibitory concentration (MIC); format: cell-based
[9] = mean mass diameter determination by laser diffraction; format: physicochemical; settings: for Mean mass diameter: laser diffraction, four different samples made by the procedure of example 1, Hydrate
From the text: For mean mass diameter Master Sizer of Malvern Instrument LTD U.K. was used under the conditions listed below:
Analysis model: Polydisperse
Obstruction value: 20-23%

[10] = dissolution rate; format: physicochemical
[11] = system: Staphylococci; test: eradication of Staphylococci from vital organs and thigh muscle; format: in vivo; settings: compared with the standard drugs
[12] = system: resistant mutants; test: treating resistant mutants
[13] = in vivo
[14] = system: slow-growing Staphylococci; test: cidal action against slow-growing Staphylococci; format: cell-based
[15] = system: high density bacterial inoculum; test: cidal effect with high density bacterial inoculum; format: cell-based; settings: high density bacterial inoculum (10^8 cfu/ml)
[16] = exposure at a relative humidity of 41%

Q: With CC1CCc2c(N3CCC(O)CC3)c(F)cc3c(=O)c(C(=O)O)cn1c23.N=C(N)NCCC[C@H](N)C(=O)O (racemic) [Example 8, RS-(±)-9-Fluoro-6,7-dihydro-8-(4-hydroxypiperidin-1-yl)-5-methyl-1-oxo-1H,5H-benzo[i,j]quinolizine-2-carboxylic Acid L-Arginine Salt] as the molecule, how does the antimicrobial activity [1] read?
A: Its antimicrobial activity is “have antimicrobial activity”.

Q: For C[C@@H]1CCc2c(N3CCC(O)CC3)c(F)cc3c(=O)c(C(=O)O)cn1c23.N=C(N)NCCCC(N)C(=O)O (stereo in doubt) [R-(+)-9-fluoro-6,7-dihydro-8-(4-hydroxypiperidin-1-yl)-5-methyl-1-oxo-1H,5H-benzo[i,j]-quinolizine-2-carboxylic acid DL-arginine salt], which antimicrobial activity [1] is on record?
A: The antimicrobial activity was “have antimicrobial activity”.

Q: With “S-(−)-9-fluoro-6,7-dihydro-8-(4-hydroxypiperidin-1-yl)-5-methyl-1-oxo-1H,5H-benzo[i,j]quinolizine-2-carboxylic acid [reference compound]” as the molecule, how does the “antimicrobial activity compared with the R-(+)- and RS- acids” value [1] read?
A: Its value is “more potent antimicrobial activity”.

Q: Which antimicrobial activity [1] does the source give for CC1CCc2c(N3CCC(O)CC3)c(F)cc3c(=O)c(C(=O)O)cn1c23.N=C(N)NCCCC(N)C(=O)O (racemic) [R, S-9-fluoro-6,7-dihydro-8-(4-hydroxypiperidin-1-yl)-5-methyl-1-oxo-1H,5H-benzo[i,j]-quinolizine-2-carboxylic acid DL-arginine salt] here?
A: Its antimicrobial activity is “have antimicrobial activity”.

Q: For “S-(−)-9-fluoro-6,7-dihydro-8-(4-hydroxypiperin-1-yl)-5-methyl-1-oxo-1H,5H-benzo[i,j]quinolizine-2-carboxylic acid, L-arginine salt, 0.75 hydrate [reference compound]”, which hygroscopicity [2, 16] is on record?
A: The hygroscopicity was “highly hygroscopic and turn into syrups”.

Q: For C[C@H]1CCc2c(N3CCC(O)CC3)c(F)cc3c(=O)c(C(=O)O)cn1c23.N=C(N)NCCCC(N)C(=O)O (stereo in doubt) [S-(−)-9-fluoro-6,7-dihydro-8-(4-hydroxypiperidin-1-yl)-5-methyl-1-oxo-1H,5H-benzo[i,j]-quinolizine-2-carboxylic acid DL-arginine salt], which antimicrobial activity [1] is on record?
A: Its antimicrobial activity is “have antimicrobial activity”.

Q: With C[C@@H]1CCc2c(N3CCC(O)CC3)c(F)cc3c(=O)c(C(=O)O)cn1c23.N=C(N)NCCC[C@H](N)C(=O)O [Example 6, R-(+)-9-Fluoro-6,7-dihydro-8-(4-hydroxypiperidin-1-yl)-5-methyl-1-oxo-1H,5H-benzo[i,j]quinolizine-2-carboxylic Acid L-Arginine Salt] as the molecule, how does the antimicrobial activity [1] read?
A: Its antimicrobial activity is “have antimicrobial activity”.

Q: For “S-(−)-9-fluoro-6,7-dihydro-8-(4-hydroxypiperidin-1-yl)-5-methyl-1-oxo-1H,5H-benzo[i,j]quinolizine-2-carboxylic acid, L-arginine salt 0.25 hydrate [reference compound]”, which hygroscopicity [2, 16] is on record?
A: The hygroscopicity was “highly hygroscopic and turn into syrups”.

Q: With CC1CCc2c(N3CCC(O)CC3)c(F)cc3c(=O)c(C(=O)O)cn1c23.N=C(N)NCCC[C@@H](N)C(=O)O (racemic) [Example 9, RS-(±)-9-Fluoro-6,7-dihydro-8-(4-hydroxypiperidin-1-yl)-5-methyl-1-oxo-1H,5H-benzo[i,j]quinolizine-2-carboxylic Acid D-Arginine Salt] as the molecule, how does the antimicrobial activity [1] read?
A: The antimicrobial activity was “have antimicrobial activity”.

Q: With C[C@H]1CCc2c(N3CCC(O)CC3)c(F)cc3c(=O)c(C(=O)O)cn1c23 [Example 1, S-(−)-9-Fluoro-6,7-dihydro-8-(4-hydroxypiperidin-1-yl)-5-methyl-1-oxo-1H,5H-benzo[i,j]quinolizine-2-carboxylic Acid L-Arginine Salt Hydrate] as the molecule, how does the “bulk density (tapped)” value ([3]; 25 gm/tapped volume, tapped 150 times) read?
A: Its value is 0.64 g/mL.

Q: And the “bulk density (untapped)” value ([3]; 25 gm/untapped volume)?
A: Its value is 0.57 g/mL.

Q: What about the hygroscopicity [2] of the same molecule?
A: The hygroscopicity was “to a certain degree hygroscopic”.

Q: And the “moisture absorption compared with the sodium salt” value ([2]; at specified humidity levels)?
A: The value was “less prone than the sodium salt to absorb moisture”.

Q: What about the “activity against resistant Staphylococcus aureus” value [4] of the same molecule?
A: The value was “potent activity”.

Q: And the “propensity to cause phlebitis” value [5]?
A: The value was “lower propensity to cause phlebitis than the sodium and potassium salts”.

Q: And the “effectiveness in treating respiratory pathogens” value [6]?
A: The value was “effective”.

Q: And the toxicity [7]?
A: Its toxicity is “less toxic in rodents than the alkali salt forms”.

Q: And the “antibacterial minimum inhibitory concentration (MIC) values compared with the free acid” value [8]?
A: The value was “same antibacterial minimum inhibitory concentration (MIC) values as the free active ingredient”.

Q: And the “retention of potency at acidic pH” value ([8]; acidic pH of 5.5)?
A: The value was “unusual ability to retain potency”.

Q: What about the Mean mass diameter [9] of the same molecule?
A: The Mean mass diameter was 32.92 μm and 24.22 μm and 34.51 μm and 39.07 μm.

Q: What about the Mean mass diameter ([9]; listed as S-(−)-9-fluoro-6,7-dihydro-8-(4-hydroxypiperidin-1-yl)-5-methyl-1-oxo-1H,5H-benz) of the same molecule?
A: Its Mean mass diameter is “less than or equal to 40 μm”.

Q: What about the “Mean mass diameter, mean value” ([9]; mean of four samples of Table 1) of the same molecule?
A: Its value is 32.68 μm.

Q: And the dissolution rate [10]?
A: Its dissolution rate is “acceptable dissolution rate”.

Q: What about the eradication efficacy [11] of the same molecule?
A: The eradication efficacy was “scores over the standard drugs”.

Q: And the “effectiveness in treating resistant mutants” value [12]?
A: The value was “effective”.

Q: What about the bioavailability [13] of the same molecule?
A: Its bioavailability is “good bioavailability”.

Q: And the cidal action [14]?
A: The cidal action was “superior cidal action”.

Q: What about the cidal effect [15] of the same molecule?
A: Its cidal effect is “unusual superior cidal effect”.

Q: For C[C@@H]1CCc2c(N3CCC(O)CC3)c(F)cc3c(=O)c(C(=O)O)cn1c23.N=C(N)NCCC[C@@H](N)C(=O)O [Example 7, R-(+)-9-Fluoro-6,7-dihydro-8-(4-hydroxypiperidin-1-yl)-5-methyl-1-oxo-1H,5H-benzo[i,j]quinolizine-2-carboxylic Acid D-Arginine Salt], which antimicrobial activity [1] is on record?
A: The antimicrobial activity was “have antimicrobial activity”.

Q: For C[C@H]1CCc2c(N3CCC(O)CC3)c(F)cc3c(=O)c(C(=O)O)cn1c23.N=C(N)NCCC[C@@H](N)C(=O)O [Example 5, S-(−)-9-Fluoro-6,7-dihydro-8-(4-hydroxypiperidin-1-yl)-5-methyl-1-oxo-1H,5H-benzo[i,j]quinolizine-2-carboxylic Acid D-Arginine Salt], which antimicrobial activity [1] is on record?
A: Its antimicrobial activity is “have antimicrobial activity”.
